Data set [1] deals with T. cruzi epimastigotes. In words: T. cruzi epimastigote drug sensitivity assay (resazurin). The data set is classed as cell-based, Trypanosoma cruzi. As to conditions: Trypanosoma cruzi. On the procedure: To examine the effects of test compounds on the growth of T. cruzi epimastigotes, mid-log-phase parasites were seeded into 96-well plates at a cell density of 5 × 10^5 cells ml^−1. Cells were exposed to test compounds over a range of concentrations (2-fold serial dilutions). Cells were incubated for 4 days, and then 20 μl of 2.5 mM resazurin was added to each well, before measuring the fluorescence (excitation, 528 nm; emission, 590 nm), following a further 24 h of incubation. […] In this equation, [I] represents the inhibitor concentration, and m is the slope factor. Experiments were repeated at least two times, and the data are presented as means plus the standard deviations.

The test system of data set [2] is T. cruzi malic enzyme (cTcME). Nature of the data set: Malic enzyme assay in clarified epimastigote lysates (NADPH production, 340 nm). In kind it is biochemical, Trypanosoma cruzi. An excerpt: Malic enzyme (ME) catalyzes the oxidative decarboxylation of malate to pyruvate with the concomitant reduction of NAD(P)^+ to NAD(P)H. In light of our TPP studies, we next sought to determine whether the binding of compound 1 to cTcME inhibits enzymatic activity. The ME-dependent production of NADPH was monitored in clarified lysates of T. cruzi epimastigotes at 340 nm after the addition of malate. In the first instance, this assay was validated using ATR-073, an established inhibitor of cTcME ([27]). […] Similarly, preincubation of lysates with 20 μM and 1 μM concentrations of compound 1 inhibited ME activity by 96 and 68%, respectively (Fig. 4C). […] It should be noted that ATR-073 and compound 1 are structurally similar, both being substituted N-phenyl aryl sulfonamides, this common moiety constituting the pharmacophore of this chemical series.
Logarithmic T. cruzi epimastigotes were harvested (1,690 × g, 10 min, 4°C), washed once in ice-cold phosphate-buffered saline, and resuspended at 2 × 10^9 cells ml^−1 in lysis buffer (10 mM phosphate buffer [pH 7.2], 10 mM EDTA, 5 mM benzamidine, 5 mM phenanthroline, 0.1 mM phenylmethylsulfonyl fluoride) containing 1 mg ml^−1 digitonin, followed by incubation at 28°C for 10 min. The resulting lysate was then centrifuged (13,000 × g, 10 min, 4°C), and the supernatant was harvested and stored on ice. The protein concentration of this clarified lysate was determined by using a standard Bio-Rad protein assay.
The activity of malic enzyme was assayed as previously described ([42]), with minor modifications. T. cruzi clarified lysate (30 μl) was added to a reaction mixture (500 μl final volume) containing 50 mM Tris-HCl buffer (pH 7.6), 1 mM MnCl2, and 0.12 mM NADP^+. Reactions were initiated by the addition of 5 mM L-malate. The reduction of NADP^+ was monitored at 340 nm using a UV-2401 spectrophotometer (Shimadzu). To monitor the effect of test compounds on the activity of malic enzyme, compounds (1 and 20 μM) were preincubated for 10 min with the lysate in the reaction mixture. DMSO (0.2%) was used as control. All enzymatic activities were calculated as Δabs min^−1 mg^−1 of protein.

Data set [3] has as its system chymotrypsin-like activity of the T. cruzi proteasome. In words: Proteasome chymotrypsin-like activity luminescence assay. The data set is classed as biochemical, Trypanosoma cruzi. As to conditions: at concentrations up to and including 3.3 μM. The procedure:
Initially, the impact of compound 1 on the chymotrypsin-like proteolytic activity of the proteasome was assessed using a commercially available indirect enzyme-based luminescent assay. In this assay, activity is monitored in proteasome-enriched T. cruzi epimastigote lysates using Suc-LLVY-aminoluciferin as a substrate ([16]). […] Thus, an alternative route to determine the impact of this arylsulfonamide compound on T. cruzi proteasome function was required.
The effect of inhibitors on the chymotrypsin-like activity of the T. cruzi proteasome was assessed by using a luminescence-based assay, as previously described ([21]).

Data set [4] has as its system T. cruzi. Conditions: higher doses given in pulses over prolonged periods; cited from earlier work.
Data set [5] concerns Chagas' disease. Conditions: cited from earlier work.

The structures appear in SMILES notation. Like-named read-outs stand apart in the source and are kept apart here.

As for `CCC(C)NC(=O)c1ccccc1NS(=O)(=O)c1ccc2ccccc2c1` (stereo not shown) [ATR-073], the EC50 in data set [1] (WT, Fig. S3B, one biological replicate) was determined as 49 ± 29 µM; in data set [1] (compound 2-Res V cells (so in the source), Fig. S3B, one biological replicate, read-out: EC50), 51 ± 18 µM; in data set [1] (epimastigotes, cell line Wild-type, weighted mean, n ≥ 3, read-out: ATR-073 EC50 values), 34 ± 1 µM; in data set [1] (epimastigotes, cell line cTcME OE, weighted mean, n ≥ 3, read-out: ATR-073 EC50 values) it was 32 ± 2 µM. Further, the “reduction in ME activity” value was 63% in data set [2] (preincubation of lysates with 1 μM) and 96% in data set [2] (preincubation of lysates with 20 μM). The “effect on the chymotrypsin-like activity of the proteasome” value in data set [3] is recorded as “no effect”.
Consider `O=C(Cn1ccnc1[N+](=O)[O-])NCc1ccccc1` [benznidazole], for which the “outcome of modified treatment regimen in mouse models of infection” value in data set [4] is recorded as “sterile parasitological cure”. Moreover, the “interruption or discontinuation of treatment due to severe toxic side effects” value in data set [5] is ≤ 30 % of cases. For the same compound, the individuals cured entry in data set [5] (prolonged treatment during the acute stage) is “up to 70%”.

The record behind these values is PMC8765320, “Identification of a Proteasome-Targeting Arylsulfonamide with Potential for the Treatment of Chagas’ Disease” (Antimicrobial Agents and Chemotherapy, 2022).
